From patent publication US20030224076A1, “Anti-inflammatory and chemopreventive composition” (priority 2002, published 2003)

Legend:
Caco-2 cells = test: Protection of intestinal cells from genotoxic agents (comet assay, menadione-induced DNA damage); assay type: cell-based, human; conditions: menadione 2 μM alone (induced DNA damage)
Experimental: The procedure for the method is as follows: The human colon adenocarcinoma cell line Caco-2 was cultivated in Dulbecco's MEM/nut mix F-12 Ham medium (Gibco) with 20% FCS (Gibco) and 1% penicillin/streptomycin (Gibco). The cells were seeded in Petri dishes (ø 35 mm) 24 h before substance incubation. After incubation with the physiological extract from carob fiber (stock solution: 10% w/v carob fiber, Caromax™, Nutrinova, in cell culture medium, working solutions: 0.001-1%), the cells were washed with PBS buffer solution (phosphate buffered salt solution) and subsequently treated with the DNA-damaging agent menadione (2 μM) and trypsinized/centrifuged. This was followed by testing for the preventive activity of the carob fiber extracts. The modulation of DNA damage by the carob fiber extracts compared with the untreated control was checked by single-cell gel electrophoresis (comet assay). The extent of DNA damage was quantified from the proportion of DNA in the comet tail (% tail intensity, TI %). The independent baseline damage was always also measured in control tests.

[1] = Reactivity toward the mediator of inflammation hypochlorous acid (ethene liberation from ACC, GC); assay type: biochemical; conditions: HOCl 25 μM, ACC 1 mM, pH 5.7, 37° C., 30 minutes
From the text: Reactivity Toward the Mediator of Inflammation Hypochlorous Acid (HOCl) Cytotoxic hypochlorous acid is a specific product of phagocytosis-competent neutrophilic granulocytes. It is used to kill phagocytosed bacteria and viruses inside these leukocytes. Hypochlorous acid is, however, secreted through the leukocyte membrane into the extracellular medium, i.e. into the surrounding tissue, and there proves to be responsible for unwanted reactions like those observed at foci of inflammation (pain, reddening, swelling). A possible procedure for detecting the reactivity toward HOCI is as follows. HOCI liberates ethene specifically from ACC (1-aminocyclopropane-1-carboxylic acid), and the ethene is determined by gas chromatography. The following mixture is chosen to examine the interaction of the test substance in this model system: [table] The hypochlorous acid is allowed to interact with the bulking agents for 30 seconds and only then is the indicator molecule ACC added. The volume-calibrated reaction vessels which are closed gas-tight are then incubated at 37° C. for 30 minutes, and the ethene liberation is measured by GC. 5-aminosalicylate is employed in concentrations of 0.5-100 μM as positive control.

Row | SMILES | TI % (proportion of DNA in the comet tail, % tail intensity) (Caco-2 cells) [%] | Amount of ethene liberated from ACC in % ([1]; 5-aminosalicylate 0.5 μM) [%] | Amount of ethene liberated from ACC in % ([1]; 5-aminosalicylate 1 μM) [%] | Amount of ethene liberated from ACC in % ([1]; 5-aminosalicylate 5 μM) [%] | Amount of ethene liberated from ACC in % ([1]; 5-aminosalicylate 10 μM) [%] | Amount of ethene liberated from ACC in % ([1]; 5-aminosalicylate 50 μM) [%] | Amount of ethene liberated from ACC in % ([1]; 5-aminosalicylate 100 μM) [%]
1 | CC1=CC(=O)c2ccccc2C1=O [menadione] | 13.6 |  |  |  |  |  | 
2 | Nc1ccc(O)c(C(=O)O)c1 [5-Aminosalicylate, 5-aminosalicylate] |  | 100 | 92 | 52 | 13 | 5 | 3
